Assay results reported in patent US8158632B2, “Pyrazolo[1,5-a]pyrimidines, processes, uses and compositions” (priority 2006, dated 2012).

Legend:
HeLa cells = assay: Cell toxicity in HeLa cells at 24 h; type: cell-based; details: HeLa at 100 μM
Experimental: (§1) d) In Vitro Determination of Cell Toxicity in HepG2, CHO-K1 and HeLa Cells at 24 h
(§2) Compounds were dissolved in DMSO to achieve an initial concentration of 100 mM. Serial dilutions were made from this stock solution in DMSO to achieve a range of concentrations from 50 to 0.25 mM. The stock solution and serial dilutions were then diluted 1:100 with the respective cell culture medium. In the case of CHO-K1 cells, concentrations at 1000, 500, 250, 100, 50, 25, 10, 5 and 2.5 μM were prepared to assess IC50, whereas in the case of HepG2 cells, final concentrations at 1000, 100, 10 and 1 μM final were assayed in order to calculate the percentage of cell. The final DMSO concentration in all wells was 1% v/v. Cell lines were both incubated with test compounds for 24 hours. Relative cell viability was determined spectro-photometrically at 490 nm following the addition of the MTS dye and further one-hour incubation. Tamoxifen was used as the positive control.
An analogous protocol was used to determine the cell toxicity in HeLa cells at 24 h.

HepG2 cells = assay: Cell toxicity (MTS cell viability) in HepG2 cells at 24 h; type: cell-based, human; details: HepG2 at 100 μM
Experimental: as §1
(§3) HepG2 (human hepatocellular carcinoma cells) and CHO-K1 (Chinese hamster ovary cells) were both obtained from the American Type Culture Collection (ATCC). HepG2 were cultured in Minimum Essential Medium (MEM) containing Earl's salts solution with 1.87 mM Glutamax® and supplemented with 1 mM sodium pyruvate, 0.1 mM non-essential amino acids, 100000 U/L penicillin, 100000 μg/L streptomycin and 10% Foetal Bovine Serum. CHO-K1 were maintained in Ham's F-12 medium containing 1 mM Glutamax® and supplemented with 1 mM L-glutamine, 100000 U/L penicillin, 100000 μg/L streptomycin and 10% Foetal Bovine Serum. Promega CellTiter 96® Aqueous One Solution Cell Viability Assay, contains the tetrazolium salt (MTS) that dehydrogenase enzymes found in metabolically active cells turn into the aqueous soluble formazan product. The quantity of formazan product is proportional to the number of living cells in culture.
as §2

[1] = Cell toxicity (MTS cell viability) in CHO-K1 cells at 24 h; type: cell-based; details: Chinese hamster
Experimental: as §1, §3
Compounds were dissolved in DMSO to achieve an initial concentration of 100 mM. Serial dilutions were made from this stock solution in DMSO to achieve a range of concentrations from 50 to 0.25 mM. […] Relative cell viability was determined spectro-photometrically at 490 nm following the addition of the MTS dye and further one-hour incubation. […]

[2] = tested on: α2 subunit of the GABAA receptor; assay: Ligand-binding assay, competitive with radiolabeled flumazenil, spinal cord membranes; details: 10^−5M compound; 1 nM radiolabeled flumazenil; rat spinal cord membranes
Experimental: (§4) a) Ligand-Binding Assays. Determination of the Affinity of Test Compounds for α1- and α2-GABAA Receptor
(§5) Male Sprague-Dawley rats weighing 200-250 g at the time of experiment were used. After decapitation of the animal, the cerebellum (tissue that mostly contains α1-GABAA receptor) and spinal cord (tissue that mostly contains α2-GABAA receptor) were removed. The membranes were prepared according to the method by J. Lameh et al. (Prog. Neuro-Psychopharmacol. Biol. Psychiatry, 24, 979-991, 2000) and H. Noguchi et al. (Eur. J. Pharm., 434, 21-28, 2002) with slight modifications. Once the tissues weighed, they were suspended in 50 mM Tris.HCl (pH 7.4), 1:40 (v/v), or sucrose 0.32 M in the case of spinal cord, homogenized and then centrifuged at 20000 g for 10 min at 7° C. The resulting pellet was resuspended under the same conditions and centrifuged again. The pellet was finally resuspended on a minimum volume and kept at −80° C. overnight. On the next day, the process was repeated until the final pellet was resuspended at a ratio of 1:10 (v/v) in the case of cerebellum and at a ratio of 1:5 (v/v) in the case of spinal cord.
Affinity was determined by competitive tests using radiolabeled flumazenil as ligand. The tests were performed according to the methods described by S. Arbilla et al. (Eur. J. Pharmacol., 130, 257-263, 1986); and Y. Wu et al. (Eur. J. Pharmacol., 278,125-132, 1995) using 96-well microtiter plates. The membranes containing the study receptors, flumazenil (radiolabeling at a final concentration of 1 nM) and ascending concentrations of test compounds (in a total volume of 230 μL in 50 mM [ph 7.4] Tris.HCl buffer) were incubated. Simultaneously, the membranes were only incubated with the radiolabeled flumazenil (total binding, 100%) and in the presence of an elevated concentration of unradiolabeled flumazenil (non-specific binding, % estimation of radiolabeled ligand). […] The next day the plates were counted using a Perkin-Elmer Microbeta scintillation counter.
(§6) For analysis of the results the percentage of specific binding for every concentration of test compound was calculated as follows: % specific binding=(X−N/T−N)×100 where, • X: amount of bound ligand for every concentration of compound. • T: total binding, maximum amount bound to the radiolabeled ligand. • N: non-specific binding, amount of radiolabeled ligand bound in a non-specific way irrespective of the receptor used.
(§7) Every concentration of compounds was tested in triplicate and their mean values were used to determine the experimental values of % specific binding versus the concentration of compound. Affinity data are expressed as % inhibition at 10^−5M and 10^−7M concentrations for α1 subunit and at 10^-5M for α2 subunit.

mice = assay: In vivo predictive sedation-hypnosis test (traveled distance); details: male CD1 mice; for % inhib motor activity: 98 μmol/kg ip, traveled distance over 30 min (first 5 min discarded) vs control
Experimental: b) In Vivo Determination of Predictive Sedative-Hypnotic Action
The in vivo effects of these compounds were assessed by a predictive sedation-hypnosis test in mice (D. J. Sanger et al., Eur. J. Pharmacol., 313, 35-42, 1996; and G. Griebel et al., Psychopharmacology, 146, 205-213, 1999).
Groups of 5-8 male CD1 mice, weighing 22-26 g at the time of test, were used. The test compounds were administered in single equimolecular intraperitoneal doses, suspended in 0.25% agar with one drop of Tween 80 in a volume of 10 mL/kg. Two doses were tested in each route. Control animals received the vehicle alone. Using a Smart System (Panlab, S. L., Spain) the traveled distance in cm is recorded for each mouse at 5-min intervals during a period of 30 minutes after intraperitoneal (ip) dosing. The inhibition percentage of traveled distance of treated animals versus control animals (the first 5 min were discarded) and ED50 values were calculated.

[3] = tested on: α1 subunit of the GABAA receptor; assay: Ligand-binding assay, competitive with radiolabeled flumazenil, cerebellum membranes; details: 1 nM radiolabeled flumazenil, rat cerebellum membranes; for % inhib 10^−5M: 10^−5M compound; for % inhib 10^−7M: 10^−7M compound
Experimental: as §4, §5
Affinity was determined by competitive tests using radiolabeled flumazenil as ligand. The tests were performed according to the methods described by S. Arbilla et al. (Eur. J. Pharmacol., 130, 257-263, 1986); and Y. Wu et al. (Eur. J. Pharmacol., 278,125-132, 1995) using 96-well microtiter plates. The membranes containing the study receptors, flumazenil (radiolabeling at a final concentration of 1 nM) and ascending concentrations of test compounds (in a total volume of 230 μL in 50 mM [ph 7.4] Tris.HCl buffer) were incubated. Simultaneously, the membranes were only incubated with the radiolabeled flumazenil (total binding, 100%) and in the presence of an elevated concentration of unradiolabeled flumazenil (non-specific binding, % estimation of radiolabeled ligand). The reactions started on adding the radiolabeled ligand followed by incubation for 60 minutes at 4° C. At the end of the incubation period, 200 μL of reaction were transferred to a multiscreen plate (Millipore) and filtered using a vacuum manifold and then washed three times with cold test buffer. The multiscreen plates were equipped with a GF/B filter that retained the membranes containing the receptors and the radiolabeled ligand which had been bound to the receptors. After washing, the plates were left till dry. Once dried, scintillation liquid was added and left under stirring overnight. The next day the plates were counted using a Perkin-Elmer Microbeta scintillation counter.
as §6, §7

[4] = Metabolic stability in human hepatocytes cytosolic fraction; type: in vitro ADME; details: 5 μM compound, 1.0 mg/mL pooled human cytosol, 37° C.
Experimental: c) In Vitro Determination of Metabolic Stability in Human Hepatocytes Cytosolic Fraction
Compounds were dissolved in dimethyl sulfoxide to achieve an initial concentration of 10 mM. This stock solution was then diluted with solvent and buffer to obtain final assay concentration of 5 μM. Compounds were tested at a single concentration of 5 μM in duplicate incubating with 1.0 mg/mL of pooled human cytosol (obtained from Xenotech plc) at 37° C. Metabolism was assessed in the presence or absence of cofactors and measured as loss of parent compound by LC/MS analysis at 0, 60 and 120-minutes time points. Percentages of remaining parent compounds were then calculated.

| SMILES | % of cell viability (HeLa cells) [%] | % of cell viability (HepG2 cells) [%] | % of cell viability (HepG2 cells; listed as indiplon) [%] | IC50 at 24 h [1] [µM] | % inhib 10^−5M [2] [%] | % inhib motor activity (mice) [%] | % inhib 10^−5M [3] [%] | % inhib 10^−7M [3] [%] | % of Parent ([4]; 60 min) [%] | % of Parent ([4]; 120 min) [%] | % of cell viability (HepG2 cells; listed as example 11) [%] | ED50 (mice; Mus musculus, ip, read-out: ED50 in inducing sedation) [µmol/kg] |
| --- | --- | --- | --- | --- | --- | --- | --- | --- | --- | --- | --- | --- |
| CC(=O)N(C)c1cccc(-c2ccnc3c(C(=O)c4cccs4)cnn23)c1 [Example 1 of US 6399621 (indiplon), N-{3-[3-(thiophene-2-carbonyl)-pyrazolo[1,5-a]pyrimidin-7-yl]-phenyl}-N-methyl-acetamide, reference compound] | 67.9 | 70 | 70 | 108 | – | – | – | – | – | – | – | – |
| CN(c1cc(-c2ccnc3c([N+](=O)[O-])cnn23)ccc1F)S(C)(=O)=O [Preparative example 5, N-{2-fluoro-5-[3-nitro-pyrazolo[1,5-a]pyrimidin-7-yl]-phenyl}-N-methyl-methanesulfonamide] | – | – | – | – | 94.5 | 89.0 | 98.2 | 42.3 | – | – | – | – |
| CN(c1cc(-c2ccnc3c(C#N)cnn23)ccc1F)S(C)(=O)=O [Preparative example 6, N-{2-fluoro-5-[3-cyano-pyrazolo[1,5-a]pyrimidin-7-yl]-phenyl}-N-methyl-methanesulfonamide] | – | – | – | – | 87.5 | 76.3 | 98.1 | 36.4 | 86 | 81 | – | – |
| Cc1nn2c(-c3ccc(F)c(N(C)S(C)(=O)=O)c3)ccnc2c1C#N [Preparative example 11, N-{2-fluoro-5-[3-cyano-2-methyl-pyrazolo[1,5-a]pyrimidin-7-yl]-phenyl}-N-methyl-methanesulfonamide] | 83.9 | 84.5 | – | 186 | 95.0 | 83.8 | 97.7 | 41.8 | 88 | 82 | 84.5 | 16.9 |
| CC(=O)N(C)c1cc(-c2ccnc3c(C(=O)c4cccs4)cnn23)ccc1C [Preparative example 13, N-{2-methyl-5-[3-(thiophene-2-carbonyl)-pyrazolo[1,5-a]pyrimidin-7-yl]-phenyl}-N-methyl-acetamide] | – | – | – | – | – | 95.6 | 98.7 | 39.8 | – | – | – | – |
| COc1ccc(-c2ccnc3c(C(=O)c4cccs4)cnn23)cc1N(C)C(C)=O [Preparative example 14, N-{2-methoxy-5-[3-(thiophene-2-carbonyl)-pyrazolo[1,5-a]pyrimidin-7-yl]-phenyl}-N-methyl-acetamide] | – | – | – | – | – | 89.6 | 97.3 | 31.9 | – | – | – | – |
| CCN(C(C)=O)c1cccc(-c2ccnc3c(C#N)cnn23)c1 [Zaleplon, reference compound] | – | – | – | – | 77.4 | 84.9 | – | – | – | – | – | – |
